In PubChem BioAssay AID330 (DTP/NCI, 2004):
“And” between values parts separate entries of the source, which are not always exact repeats. Equal values may be shown once. Inconclusive results and toxic doses are left out. The calls were made as follows: active = survival T/C of 150% or more; inactive = T/C below 125% in these data.

Tested on: P388 leukemia ip, CD2F1 mice, survival T/C
Experiment: NCI In Vivo Anticancer Drug Screen. Data for tumor model P388 Leukemia (intraperitoneal) in CD2F1 (CDF1) mice
Conditions: endpoint: median survival time, higher = longer survival
Summary of the method: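 Mice carrying the transplanted tumor received test compound or vehicle. Survival was recorded in each group, and the value is the treated-group measurement divided by that of the vehicle-treated control group.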

[1] = dose: 60.0 mg/kg/injection, schedule: Q01DX005 (ip), vehicle: saline with Tween-80
[2] = dose: 120.0 mg/kg/injection, schedule: Q01DX005 (ip), vehicle: saline with Tween-80
[3] = dose: 50.0 mg/kg/injection, schedule: Q01DX005 (ip), vehicle: saline with Tween-80
[4] = dose: 100.0 mg/kg/injection, schedule: Q01DX005 (ip), vehicle: saline with Tween-80
[5] = dose: 200.0 mg/kg/injection, schedule: Q01DX005 (ip), vehicle: saline with Tween-80
[6] = dose: 50.0 mg/kg/injection, schedule: Q01DX009 (ip), vehicle: saline
[7] = dose: 100.0 mg/kg/injection, schedule: Q01DX009 (ip), vehicle: saline
[8] = dose: 25.0 mg/kg/injection, schedule: Q01DX009 (ip), vehicle: saline
[9] = dose: 50.0 mg/kg/injection, schedule: Q01DX009 (ip), vehicle: saline with Tween-80
[10] = dose: 100.0 mg/kg/injection, schedule: Q01DX009 (ip), vehicle: saline with Tween-80
[11] = dose: 200.0 mg/kg/injection, schedule: Q01DX009 (ip), vehicle: saline with Tween-80

Measured: T/C

CC[C@]12CN3CCc4c([nH]c5ccccc45)[C@@](C(=O)OC)(c4cc5c(cc4OC)N(C)[C@H]4[C@@](O)(C(=O)OC)[C@H](OC(C)=O)[C@]6(CC)C=CCN7CC[C@]54[C@@H]76)CC(C3)[C@H]1O2 (stereo partly drawn)
inactive: dose: 0.05 mg/kg/injection, schedule: Q01DX009 (ip), vehicle: saline 101 % of control | dose: 0.1 mg/kg/injection, schedule: Q01DX009 (ip), vehicle: saline 104 % of control | dose: 0.2 mg/kg/injection, schedule: Q01DX009 (ip), vehicle: saline 104 % of control | dose: 0.4 mg/kg/injection, schedule: Q01DX009 (ip), vehicle: saline 103 % of control | dose: 0.5 mg/kg/injection, schedule: Q01DX001 (ip), vehicle: water 104 % of control | dose: 0.75 mg/kg/injection, schedule: Q01DX009 (ip), vehicle: saline 114 % of control | dose: 0.8 mg/kg/injection, schedule: Q01DX009 (ip), vehicle: saline 107 % of control | dose: 1.0 mg/kg/injection, schedule: Q01DX001 (ip), vehicle: water 95 % of control | dose: 1.6 mg/kg/injection, schedule: Q01DX009 (ip), vehicle: saline 113 % of control | dose: 2.0 mg/kg/injection, schedule: Q01DX001 (ip), vehicle: water 108 % of control | dose: 3.0 mg/kg/injection, schedule: Q01DX009 (ip), vehicle: saline 117 % of control | dose: 3.2 mg/kg/injection, schedule: Q01DX009 (ip), vehicle: saline 110 % of control | dose: 4.0 mg/kg/injection, schedule: Q01DX001 (ip), vehicle: water 116 % of control | dose: 6.4 mg/kg/injection, schedule: Q01DX009 (ip), vehicle: saline 120 % of control | dose: 8.0 mg/kg/injection, schedule: Q01DX001 (ip), vehicle: water 122 % of control | dose: 12.0 mg/kg/injection, schedule: Q01DX009 (ip), vehicle: saline sonified 121 % of control | dose: 24.0 mg/kg/injection, schedule: Q01DX009 (ip), vehicle: saline 117 % of control
active: dose: 6.0 mg/kg/injection, schedule: Q01DX009 (ip), vehicle: saline sonified 173 % of control | dose: 6.0 mg/kg/injection, schedule: Q01DX009 (ip), vehicle: saline 156 % of control and 160 % of control | dose: 12.0 mg/kg/injection, schedule: Q01DX009 (ip), vehicle: saline 176 % of control and 220 % of control

NCCN.NCCN.[Cl-].[O]=[Os+2]=[O]
inactive: [1] 118 % of control | [2] 114 % of control

COc1ccc2c(c1)[C@@]13CCCC[C@H]1[C@@H](C2)[N+](C)=CC3=NO
inactive: dose: 60.0 mg/kg/injection, schedule: Q01DX005 (ip), vehicle: Klucel (hydroxypropylcellulose) (HPC) 105 % of control

CN(C)CC1C2CCC(C2)C1O (stereo not drawn)
inactive: [3] 98 % of control | [4] 97 % of control | [5] 99 % of control

COC1=C(NC(C)=O)C(=O)c2nc(-c3nc(C(=O)O)c(C)c(-c4ccc(OC)c(OC)c4O)c3N)ccc2C1=O
inactive: dose: 12.5 mg/kg/injection, schedule: Q01DX009 (ip), vehicle: distilled water + Tween-80 119 % of control | dose: 25.0 mg/kg/injection, schedule: Q01DX009 (ip), vehicle: distilled water + Tween-80 118 % of control | dose: 50.0 mg/kg/injection, schedule: Q01DX009 (ip), vehicle: distilled water + Tween-80 119 % of control | dose: 100.0 mg/kg/injection, schedule: Q01DX009 (ip), vehicle: distilled water + Tween-80 119 % of control

Cc1ccc(S(=O)(=O)NC(CN)C(=O)O)cc1 (stereo not drawn)
inactive: dose: 25.0 mg/kg/injection, schedule: Q01DX009 (ip), vehicle: other 104 % of control | dose: 50.0 mg/kg/injection, schedule: Q01DX009 (ip), vehicle: other 101 % of control | dose: 100.0 mg/kg/injection, schedule: Q01DX009 (ip), vehicle: other 101 % of control | dose: 200.0 mg/kg/injection, schedule: Q01DX009 (ip), vehicle: other 107 % of control | dose: 400.0 mg/kg/injection, schedule: Q01DX009 (ip), vehicle: other 104 % of control

Clc1ccc(/C=C/c2ccnnc2)cc1
inactive: [6] 106 % of control | [7] 106 % of control | dose: 200.0 mg/kg/injection, schedule: Q01DX009 (ip), vehicle: saline 91 % of control

NC(Cc1ccc(O)cc1)C(=O)N/N=C/c1ccc2c(c1)OCO2 (stereo not drawn)
inactive: [3] 92 % of control | [4] 99 % of control | [5] 103 % of control

COc1cccc2c1C(=O)c1c(O)c3c(c(O)c1C2=O)C[C@@](O)(c1csc(-c2ccncc2)n1)C[C@@H]3OC1CC(N)C(O)C(C)O1 (stereo partly drawn)
inactive: dose: 6.25 mg/kg/injection, schedule: Q04DX003 (ip), vehicle: water 118 % of control | dose: 12.5 mg/kg/injection, schedule: Q04DX003 (ip), vehicle: water 122 % of control | dose: 25.0 mg/kg/injection, schedule: Q04DX003 (ip), vehicle: water 100 % of control | dose: 50.0 mg/kg/injection, schedule: Q04DX003 (ip), vehicle: water 118 % of control | dose: 200.0 mg/kg/injection, schedule: Q04DX003 (ip), vehicle: water 92 % of control

COC1=Cc2nc3ccccc3nc2OC1(C)C
inactive: [1] 110 % of control | [2] 100 % of control | dose: 240.0 mg/kg/injection, schedule: Q01DX005 (ip), vehicle: saline with Tween-80 92 % of control

C#CC(C)(O)C(C)(C)C (stereo not drawn)
inactive: [8] 88 % of control | [6] 98 % of control | [7] 98 % of control

COc1ccc(C(=O)c2ccc(OCCBr)cc2)c(O)c1
inactive: [3] 92 % of control | [4] 88 % of control | [5] 88 % of control

CN(C)c1cc(O)c(-n2c3cc(=O)c(N(C)C)cc-3nc3ccccc32)cc1O
inactive: dose: 3.12 mg/kg/injection, schedule: Q01DX009 (ip), vehicle: saline 100 % of control | dose: 6.25 mg/kg/injection, schedule: Q01DX009 (ip), vehicle: saline with Tween-80 93 % of control | dose: 6.25 mg/kg/injection, schedule: Q01DX009 (ip), vehicle: saline 96 % of control | dose: 12.5 mg/kg/injection, schedule: Q01DX009 (ip), vehicle: saline with Tween-80 90 % of control | dose: 12.5 mg/kg/injection, schedule: Q01DX009 (ip), vehicle: saline 100 % of control | dose: 25.0 mg/kg/injection, schedule: Q01DX009 (ip), vehicle: saline with Tween-80 91 % of control | [8] 115 % of control | [6] 120 % of control | [7] 90 % of control

COc1cc(-c2oc3c(OC)cc(OC)c(O)c3c(=O)c2OC)cc(OC)c1OC
inactive: dose: 100.0 mg/kg/injection, schedule: Q04DX002 (ip), vehicle: saline with Tween-80 96 % of control | dose: 200.0 mg/kg/injection, schedule: Q04DX002 (ip), vehicle: saline with Tween-80 105 % of control | dose: 400.0 mg/kg/injection, schedule: Q04DX002 (ip), vehicle: saline with Tween-80 96 % of control

C=CS(=O)(=O)c1ccc(C)cc1
inactive: dose: 1.56 mg/kg/injection, schedule: Q01DX009 (ip), vehicle: Klucel (hydroxypropylcellulose) (HPC) 104 % of control | dose: 3.13 mg/kg/injection, schedule: Q01DX009 (ip), vehicle: Klucel (hydroxypropylcellulose) (HPC) 99 % of control and 105 % of control | dose: 6.25 mg/kg/injection, schedule: Q01DX009 (ip), vehicle: Klucel (hydroxypropylcellulose) (HPC) 121 % of control and 95 % of control | dose: 12.5 mg/kg/injection, schedule: Q01DX009 (ip), vehicle: Klucel (hydroxypropylcellulose) (HPC) 99 % of control and 111 % of control

COC1CC(N)C2OC(c3ccccc3)OCC2O1 (stereo not drawn)
inactive: [9] 99 % of control | [10] 101 % of control | [11] 109 % of control

c1ccc2c(c1)C1CCC2[n+]2ccccc21 (stereo not drawn)
inactive: dose: 6.25 mg/kg/injection, schedule: Q01DX005 (ip), vehicle: Klucel (hydroxypropylcellulose) (HPC) 108 % of control | dose: 12.5 mg/kg/injection, schedule: Q01DX005 (ip), vehicle: Klucel (hydroxypropylcellulose) (HPC) 106 % of control | dose: 25.0 mg/kg/injection, schedule: Q01DX005 (ip), vehicle: Klucel (hydroxypropylcellulose) (HPC) 110 % of control

O=C1OC(=O)C2CCC12 (stereo not drawn)
inactive: [9] 106 % of control | dose: 60.0 mg/kg/injection, schedule: Q01DX005 (ip), vehicle: saline 93 % of control | [10] 106 % of control | dose: 120.0 mg/kg/injection, schedule: Q01DX005 (ip), vehicle: saline 89 % of control | [11] 97 % of control | dose: 240.0 mg/kg/injection, schedule: Q01DX005 (ip), vehicle: saline 86 % of control
